The nature of data set [1]: Stabilization of multiple-extruded polypropylene. The conditions noted are these: 0.05% of compound; heating zones 260, 270, 280° C.; measured at 230° C./2.16 kg; without compound 17.5. How it is done:
1.3 kg of polypropylene powder (Profax 6501), which has been prestabilized with 0.025% of Irganox®1076 (n-octadecyl 3-[3,5-di-tert-butyl-4-hydroxyphenyl]propionate) (melt index 3.2 g/10 min, measured at 230° C./2.16 kg) are blended with 0.05% of Irganox®1010 (pentaerythritol tetrakis[3-(3,5-di-tert-butyl-4-hydroxyphenyl)propionate]), 0.05% of calcium stearate, 0.03% of DHT 4A® (Kyowa Chemical Industry Co., Ltd., [Mg4.5Al2(OH)13CO3.3.5H2O]) and 0.05% of compound of Table 4. This blend is then extruded in an extruder having a cylinder diameter of 20 mm and a length of 400 mm at 100 rpm, the 3 heating zones being adjusted to the following temperatures: 260, 270, 280° C. The extrudate is cooled by drawing it through a water bath and is then granulated. This granulate is repeatedly extruded. After 3 extrusions, the melt index is measured (at 230° C./2.16 kg). A substantial increase in the melt index denotes pronounced chain degradation, i.e. poor stabilization.

Data set [2] is described as follows: Stabilization of polyethylene during processing (Brabender plastograph). As to conditions: 0.05 part compound and 0.05 part Irganox 1010 per 100 parts polyethylene; 220° C., 50 rpm; without compound 9.7. How it is done: 100 parts of polyethylene powder (Lupolen®5260 Z) are blended with 0.05 part of Irganox®1010 (pentaerythritol tetrakis[3-(3,5-di-tert-butyl-4-hydroxyphenyl)propionate]) and 0.05 part of a compound of Table 5 and the blend is kneaded in a Brabender plastograph at 220° C. and 50 rpm. During this time the kneading resistance is recorded continuously as torque. In the course of the kneading time the polymer begins to crosslink after prolonged constancy, as can be determined by the rapid increase in torque. The time taken until a marked increase in torque is shown in Table 5 as a measure of the stabilizing action. The longer this time is the better the stabilizing action.

The nature of data set [3]: Prevention of migration of the oxidized developer in a color photographic material (three layer test elements, interlayer scavenger). The conditions noted are these: 20 mg.m^−2 scavenger in interlayer; AGFA P-94 developing process; control without scavenger 0.293. On the procedure: To evaluate compounds of this invention with respect to their ability as interlayer scavengers for oxidized developing agent, three layer photographic test elements are prepared by providing layers in the order indicated on a polyethylene-coated paper support:
(2) An interlayer containing:
The test elements are imagewise exposed through a step wedge with density increment 0.15 and thereafter subjected to the AGFA P-94 developing process.
Upon processing of the test elements, some oxidized developer is prone to migrate from the layer in which it is formed, for example the undermost, magenta-dye-providing layer, to the topmost layer containing the cyan-dye-forming coupler, thereby producing unwanted cyan dye. The amount of cyan dye that is generated depends on the ability of the interlayer to prevent the diffusion of oxidized developer.

Data set [4] is described as follows: Stabilization of multiple-extruded polypropylene at high temperature. As to conditions: measured at 230° C./2.16 kg. The arrangement: unit not given here. On the procedure:
This blend is then extruded in an extruder having a cylinder diameter of 20 mm and a length of 400 mm at 100 rpm, the 3 heating zones being adjusted to the following temperatures: 280, 320, 340° C. The extrudate is cooled by drawing it through a water bath and is then granulated. This granulate is repeatedly extruded. […] A substantial increase in the melt index denotes pronounced chain degradation, i.e. poor stabilization.

A short description of data set [5]: Stabilization of polycarbonate (oven ageing at 135° C., yellowness index and transmission). The conditions noted are these: 0.01% stabilizer; for Yellowness index prior to oven-ageing: 2 mm plates, ASTM D 1925-70; for Transmission in % prior to oven-aging / Transmission in % after 2000 hours at 135° C.: at 450 nm; for Transmission in % after 2000 hours at 135° C.: without stabilizer 76.4; for Yellowness index after 2000 hours at 135° C.: circulating air oven, without stabilizer 25.0. How it is done: This mixture is then extruded in a Schwabenthan extruder at a maximum of 280° C. The polymer string is then granulated. Using an injection moulding machine, plates having a layer thickness of 2 mm are then moulded from the granulate so obtained at a maximum of 300° C. […] Low YI values denote little discoloration, high YI values high discoloration of the patterns. […] The results are compiled in Tables 17 and 18.

Data set [6] in a line: Light-colored SBR-vulcanisate, ozone atmosphere for 96 hours: crack formation. The arrangement: key: grade 0: Grade 0 denotes no cracks; grade 1 denotes narrow flat cracks; grade 2 denotes moderately broad, moderately deep cracks, clearly visible; grade 3 denotes broad and deep cracks. As to conditions: 2.0 phr stabilizer, ozone 50 pphm, 40° C., dynamic elongation, without stabilizer grade 2. How it is done: (§1) 100 parts by weight of Cariflex®S-1502 (styrene/butadiene rubber, Shell) are processed at 60° C., in a mixing mill, with 30.0 parts by weight of Kronos®CL 220 [titanium dioxide (pigment), Kronos Titan GmbH], 30.0 parts by weight of Aktisil®MM [kaolin (filler), Hoffmann Mineral, Neuburg/Donau], 5.0 parts by weight of Naftolen®N 401 [plasticiser, Metallgesellschaft], 10.0 parts by weight of zinc oxide [vulcanization activator], 2.0 parts by weight of stearic acid [vulcanization activator], 2.0 parts by weight of sulfur [vulcanizing agent], 1.0 part by weight of Vulkacit®MOZ [vulcanization accelerator, Bayer], 0.25 part by weight of Vulkacit®Thiuram [vulcanization accelerator, […], to form a homogeneous mixture, the vulcanization system (sulfur, Vulkacit®MOZ and Vulkacit®Thiuram) not being added until the end of the mixing process. The mixture is vulcanized in electrical vulcanization presses at 150° C. until T95 is reached in the rheometer curves to form elastomer plates 2 mm thick, 21 cm long and 8.0 cm wide.
Some of the elastomer plates so obtained are tested for the action of ozone according to the ASTM standard D 3395-86 while subject to dynamic elongation. In this test the plates are first stored for 30 days in a standard atmosphere [23/50 SN-ISO 291]. Test specimens measuring 20 cm by 1 cm are then punched out and exposed to an ozone atmosphere for 96 hours (ozone content: 50 pphm; temperature: 40° C.; humidity: 50% rel.; elongation: 0 to 25%; elongation rate: 0.5 Hz; number of load cycles: approximately 173 000). The test plates are then assessed for crack formation according to ASTM D 3395-86. Grade 0 denotes no cracks; grade 1 denotes narrow flat cracks; grade 2 denotes moderately broad, moderately deep cracks, clearly visible; grade 3 denotes broad and deep cracks. The lower the grade number, the better the stabilization of the elastomer plates.

Data set [7] can be described thus: Light-colored SBR-vulcanisate (Example 23): ΔL-color after 3 weeks in diffuse daylight. The conditions noted are these: 2.0 phr stabilizer; 3 weeks at room temperature in diffuse daylight; scale 0 to 100, 100 = no discoloration; without stabilizer 97. How it is done: as §1
The remaining elastomer plates are stored for 3 weeks at room temperature in a standard laboratory atmosphere in diffuse daylight. The ΔL-color of those plates is then determined according to DIN 6167, which corresponds to a scale of from 0 to 100. No discoloration is indicated by a value of 100.

A short description of data set [8]: Stabilisation of polybutylene terephthalate (impact strength in oven-ageing test at 160° C.). The conditions noted are these: for Impact strength after 360 h: without stabilizer 26. On the procedure:
1.0 kg of a polybutylene terephthalate powder which has been dried for 10 hours at 100° C. in a vacuum drying oven (Crastin®S600, of Ciba Specialty Chemicals Inc.) is charged with the stabilizers listed in Table 20 and is mixed for 2 minutes in a Henschel mixer. This mixture is then extruded in a twin-screw extruder (type Berstorff) at a maximum of 250° C. and is then granulated. In an injection moulding apparatus, the granulate so obtained is moulded at a maximum of 260° C. to little rods 4×6 mm thick and 50 mm long. These little rods are then aged in a circulating air oven at 160° C. After 360 hours the impact strength of the rods is measured in KJ/m^2. The higher the values, the better the stabilization.

A short description of data set [9]: Stabilization of polycarbonate (Weather-O-Meter exposure). The conditions noted are these: 0.30% stabilizer; Weather-O-Meter WOM CI 65; without stabilizer 30.2. How it is done: 1.0 kg of a polycarbonate powder which has been dried for 8 hours at 120° C. in a vacuum drying oven (Lexan®145, of General Electric) is charged with the stabilizers listed in Table 21 and is mixed for 2 minutes in a Henschel mixer. This mixture is then extruded in a Schwabenthan extruder at a maximum of 280° C. The polymer string is then granulated. Using an injection moulding machine, plates having a layer thickness of 2 mm are then moulded from the granulate so obtained at a maximum of 300° C. These plates are then irradiated in a Weather-O-Meter (WOM CI 65) for 2500 hours at a black standard temperature of 63° C., at a dry/wet cycle of 102/18 minutes and at an intensity of 0.35 W/m^2 at 340 nm. The yellowness index (YI) of these plates is then determined according to ASTM D 1925-70. Low YI values denote little discoloration, high YI values high discoloration of the plates. […]

As for `CC(C)(C)c1cc2c(c(C(C)(C)C)c1)OC(=O)C2c1ccc(F)cc1` (stereo not shown) [(105), 5,7-di-tert-butyl-3-(4-fluorophenyl)-3H-benzofuran-2-one], the melting point fell in the range of 146 to 147 °C. Further, in [1], the “Melt index after 3 extrusions” value is on record as 4.7. Further, the “Time until increase in torque” value in data set [2] turned out to be 27.0 min.

On to `CC(C)(C)c1cc2c(c(C(C)(C)C)c1)OC(=O)C2c1ccc(C(F)(F)F)cc1` (stereo not shown) [Compound (101), 5,7-di-tert-butyl-3-(4-trifluoromethyl-phenyl)-3H-benzofuran-2-one], for which the melting point is 127 to 128 °C. Further, the “Cyan density at a magenta density of 1.5” value in data set [3] amounted to 0.253. Further, the “Melt index after 3 extrusions” value in data set [1] was 4.7. The “Time until increase in torque” value in data set [2] is reported as 27.5 min. Further, in data set [4] (280° C., stabilizer 0.015% by weight), the “Melt index after 5 extrusions” value amounted to 8.5. The “Melt index after 5 extrusions” value in [4] (320° C., stabilizer 0.015% by weight) is on record as 19.6. The “Melt index after 5 extrusions” value in [4] (340° C., stabilizer 0.015% by weight) amounted to 22.5. Further, in data set [5], the “Yellowness index prior to oven-ageing” value is on record as 3.4, the “Transmission in % prior to oven-aging” value is listed as 85.8%, the “Transmission in % after 2000 hours at 135° C.” value is 81.3% and the “Yellowness index after 2000 hours at 135° C.” value is on record as 16.4. For the same compound, the “Crack formation according to ASTM D 3395-86” value in data set [6] is “grade 1”. Also, the “ΔL-color according to DIN 6167” value in data set [7] was determined as 95.

In the case of `CC(C)(C)c1cc2c(c(C(C)(C)C)c1)OC(=O)C2c1ccc(C#N)cc1` (stereo not shown) [Compound (106), 5,7-di-tert-butyl-3-(4-cyanophenyl)-3H-benzofuran-2-one], the melting point lay within 136 to 137 °C.

Regarding `COC(=O)c1ccc(C2C(=O)Oc3c2cc(C(C)(C)C)cc3C(C)(C)C)cc1` (stereo not shown) [Compound (109), 5,7-di-tert-butyl-3-(4-methoxycarbonylphenyl)-3H-benzofuran-2-one], the “Cyan density at a magenta density of 1.5” value in data set [3] is given as 0.254. For the same compound, in [1], the “Melt index after 3 extrusions” value is 4.8. Also, in data set [2], the “Time until increase in torque” value stood at 27.5 min.

As to `CCCCCCCCCCCCCCCCCCOC(=O)c1ccc(C2C(=O)Oc3c2cc(C(C)(C)C)cc3C(C)(C)C)cc1` (stereo not shown) [Compound (112)], in data set [5], the “Yellowness index prior to oven-ageing” value was found to be 3.5, the “Transmission in % prior to oven-aging” value is 85.9%, the “Transmission in % after 2000 hours at 135° C.” value was 81.8% and the “Yellowness index after 2000 hours at 135° C.” value was 14.3.

As to `Cc1cc(CCC(=O)OCCOCCOCCOC(=O)CCc2cc(C)c(O)c(C(C)(C)C)c2)cc(C(C)(C)C)c1O` [Irganox ®245], in data set [8] (0.05% stabilizer), the “Impact strength after 0 h” value turned out to be 132 KJ/m^2 and the “Impact strength after 360 h” value is reported as 111 KJ/m^2. Also, in data set [8] (0.10% stabilizer), the “Impact strength after 0 h” value is 135 KJ/m^2 and the “Impact strength after 360 h” value came out at 114 KJ/m^2.

On to `CC(C)(C)c1ccc(OP(Oc2ccc(C(C)(C)C)cc2C(C)(C)C)c2ccc(-c3ccc(P(Oc4ccc(C(C)(C)C)cc4C(C)(C)C)Oc4ccc(C(C)(C)C)cc4C(C)(C)C)cc3)cc2)c(C(C)(C)C)c1` [Sandostab ®P-EPQ, tetrakis(2,4-di-tert-butylphenyl)-4,4′-biphenylene diphosphonite], for which the “Melt index after 5 extrusions” value in [4] (280° C., stabilizer 0.050% by weight) was found to be 6.3; in data set [4] (320° C., stabilizer 0.050% by weight) it was 23.9; in [4] (340° C., stabilizer 0.050% by weight) it was 61.5.

In the case of `CC(C)(c1ccccc1)c1cc(-n2nc3ccccc3n2)c(O)c(C(C)(C)c2ccccc2)c1` [Tinuvin ®234], the “Yellowness index after 2500 h exposure to light” value (from here on “Yellowness index … to light”) in data set [9] is recorded as 17.8.

With `CC(C)(C)CC(C)(C)c1cc(Cc2cc(C(C)(C)CC(C)(C)C)cc(-n3nc4ccccc4n3)c2O)c(O)c(-n2nc3ccccc3n2)c1` [Tinuvin ®360], the “Yellowness index … to light” value in [9] was 16.6.

In the case of `CCCCCCOc1ccc(-c2nc(-c3ccccc3)nc(-c3ccccc3)n2)c(O)c1` [Tinuvin ®1577], the “Yellowness index … to light” value in data set [9] is reported as 11.2.

The term melting point denotes the temperature of the solid-liquid transition.

The record behind these values is patent US6809208B2, “3-Arylbenzofuranones with electron-withdrawing substituents as stabilizers” (Ciba Specialty Chemicals Corporation, priority 2000, dated 2004).
